In the assay the target is T1, Tyrosinase (Agaricus bisporus, UniProt O42713).
T1 sequence (O42713 whole entry): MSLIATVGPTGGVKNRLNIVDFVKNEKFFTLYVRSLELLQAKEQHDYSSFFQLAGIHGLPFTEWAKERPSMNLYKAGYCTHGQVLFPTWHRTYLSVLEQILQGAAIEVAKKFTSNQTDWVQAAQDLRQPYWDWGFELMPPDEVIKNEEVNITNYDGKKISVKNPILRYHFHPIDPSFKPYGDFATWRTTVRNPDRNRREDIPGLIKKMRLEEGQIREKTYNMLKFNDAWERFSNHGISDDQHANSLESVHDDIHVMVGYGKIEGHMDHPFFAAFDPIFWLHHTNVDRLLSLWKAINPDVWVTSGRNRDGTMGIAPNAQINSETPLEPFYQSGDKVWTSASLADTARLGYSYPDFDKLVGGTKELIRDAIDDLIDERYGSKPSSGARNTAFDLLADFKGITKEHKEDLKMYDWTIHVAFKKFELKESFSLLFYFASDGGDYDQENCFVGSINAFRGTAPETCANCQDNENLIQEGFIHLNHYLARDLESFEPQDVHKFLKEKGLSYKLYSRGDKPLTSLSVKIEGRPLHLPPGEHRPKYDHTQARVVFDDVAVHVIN
Kind of assay: Inhibition of mushroom tyrosinase assessed as oxidation of L-DOPA.

With `NC(=O)[C@H](Cc1ccccc1)NC(=O)OCc1cc(=O)c(O)co1`, the IC50 amounted to 14.7 µM and the Ki came to 11 µM.

What is called IC50 is the concentration at which inhibition is half-maximal. As a reminder, the Ki is the equilibrium dissociation constant of an inhibitor or competing ligand from its target.

Source of the values: ChEMBL document CHEMBL1155184, “Kojic acid-amino acid conjugates as tyrosinase inhibitors” (Bioorg Med Chem Lett, 2009).
